Measurements: patent US20090239757A1, “Control Sequences Responding to AMP and Uses Thereof” (priority 2004, published 2009)
Residues, ends and D or L forms follow the SMILES beside them.

Tested on: E. coli TOP10
Experiment: microarray transcription profile of E. coli TOP10 expressing Novispirin G10 (pDRS5-novispirin, arabinose induced) relative to control strain pBAD gIII A
Type: cell-based, Escherichia coli
Protocol: In order to obtain a transcriptional profile of E. coli expressing Novispirin G10, 2×10 mL sterile LB media (10 g/L Bactotryptone, 5 g/L Yeast extract, and 10 g/L NaCl) containing 100 mg/L ampicillin was inoculated with E. coli TOP10 harbouring pDRS5-novispirin and pBAD gIII A, respectively. These cultures were grown overnight at 37° C. at 180 rpm. The overnight cultures were diluted 1/100 into fresh sterile RM media (2% Casamino Acids, 0.2% glycerol, 1 mM MgCl2, 0.1 mM thiamine, 6 g/L Na2HPO4, 3 g/L KH2PO4.2H2O, 0.5 g/L NaCl, 0.1 g/L NH4Cl at pH 7.4) supplemented with 100 mg/L ampicillin and 0.1% arabinose. 100 mL of each culture was grown at 37° C., 240 rpm for 4.5 hours before being harvested by poured into centrifugation tubes containing 10 mL pre-frozen milliQ water and immediate centrifugation at 4200 g for 15 minutes at 4° C. Immediately hereafter, the supernatant was decanted and the cell […] was frozen at −20° C. for storage until RNA preparation was initiated.
Total RNA was isolated from the two E. coli (expressing either Novispirin G10 or a control peptide) cultures by use of the High Pure RNA Isolation kit (Roche, cat #1 828 665) according to the manufacturers instructions. Residual DNA was removed on-column with RNase-free DNase. Labelled samples were prepared from 30 μg of total bacterial RNA. Fluorescent first strand cDNA was prepared by random primed reverse transcription (Superscript II; Life Technologies) by use of random hexamers for cDNA synthesis. 2 μl (20 μg) of random primer was mixed with 15 μl (30 μg) of total RNA, incubated for 5 min at 70° C., and cooled on ice. To each sample was added 5× first strand buffer (6 μl), 0.1 M DTT (3 μl), dNTP mix (5 mM dATP, dGTP and dTTP and 2 mM dCTP) (1 μl), RNaseOut (1 μl), Superscript II reverse transcriptase (2 μl) and Cy-dCTP (3 μl). Reverse transcription was carried out at 42° C. for 1 hr. RNA was removed by addition of 10 μl NaOH (1 M) and incubation at 65° C. for 10 min. The samples were neutralised by addition of 10 μl HCl (1 M). Cy3 and Cy5 cDNA samples were mixed and immediately purified with a GFX PCR DNA and Gel Band Purification Kit (Amersham Biosciences).
Slides were pre-hybridised at 42° C. for 45 min in a solution containing 4×SSC+0.5% SDS+1% BSA and dried by centrifugation. Hybridizations were in a volume of 25 μl under a supported cover slip at 42° C. for 16-18 h at high humidity. The hybridisation mixture was labelled cDNA in a formamide-based hybridisation buffer (MWG—supplied with the pan-arrays). Cover slip and supports were gently removed (2×SSC in a wash tray) and arrays were washed by immersion into 2×SSC+0.1% SDS for 5 min, 1×SSC+0.1% SDS for 5 min, 0.5×SSC for 5 min and 1× millipore water for 10 sec and dried by centrifugation. Slides were scanned on a GMS 418 scanner to detect Cy3 and Cy5 fluorescence. Data analysis was carried out using ImaGene 5.0 and GeneSight 3.5 from BioDiscovery (www.biodiscovery.com). Two biological replicate experiments with four replicate hybridisations in each experiment were carried out for generation of data.
Pan E. coli K12 Arrays from MWG Biotech were used in this study (lot No.: 020206). The 4239 E. coli K12 specific oligonucleotide probes present on this glass-based DNA chip represent the complete Escherichia coli (K12) genome
Gene expression data was analyzed using the GeneSight 4.1.5 software from BioDiscovery. Data was prepared using local background correction, removal of flagged spots (contaminated background or signal), floor value raising data to a minimum value of 20, calculation of ratio, log(2) transformation of ratios, print-tip lowess normalization, and finally combination of replicate spot.

[1] = confidence level of 90%, relative to control strain expressing a peptide without antimicrobial activity

## CC[C@H](C)[C@H](NC(=O)CNC(=O)[C@H](CCCCN)NC(=O)[C@H](CCCNC(=N)N)NC(=O)[C@@H](NC(=O)[C@@H](NC(=O)[C@H](CCCNC(=N)N)NC(=O)[C@H](CCCNC(=N)N)NC(=O)[C@H](CC(C)C)NC(=O)[C@H](CC(N)=O)NC(=O)[C@@H](N)CCCCN)[C@@H](C)CC)[C@@H](C)CC)C(=O)N[C@@H](Cc1c[nH]cn1)C(=O)N[C@H](C(=O)N[C@H](C(=O)N[C@@H](CCCCN)C(=O)N[C@@H](CCCCN)C(=O)N[C@@H](Cc1ccc(O)cc1)C(=O)NCC(=O)O)[C@@H](C)CC)[C@@H](C)CC [Novispirin G10] (H-KNLRRIIRKGIHIIKKYG-OH; N-terminus assumed)
  ratio, gene tra8_1: −4.3
  ratio, gene trpD: −3.4
  ratio, gene tsx: −3.3
  ratio, gene ugpA: 3.3
  ratio, gene uvrY: 3.3
  ratio, gene uxuB: 3.5
  ratio, gene vacJ: 3.0
  ratio, gene wcaD: −2.7
  ratio, gene wcaJ: −2.8
  ratio, gene wza: 3.3
  ratio, gene xasA: 24.9
  ratio, gene yaaI: 2.9
  ratio, gene yabI: −2.6
  ratio, gene yafC: −5.1
  ratio, gene yagT: 3.3
  ratio, gene yaiH: 6.1
  ratio, gene yaiP: −3.9
  ratio, gene ybaP: 8.4
  ratio, gene ybaS: 8.8
  ratio, gene ybaY: 9.9
  ratio, gene ybbN: −2.6
  ratio, gene ybbY: 4.4
  ratio, gene ybdS: 4.2
  ratio, gene ybeK: −3.0
  ratio, gene ybeL: 3.6
  ratio, gene ybfA: 3.5
  ratio, gene ybgA: 4.2
  ratio, gene ybhL: 9.3
  ratio, gene ybhP: −5.1
  ratio, gene ybhS: −2.6
  ratio, gene ybiU: −3.7
  ratio, gene ybiX: −2.7
  ratio, gene ybjC: −2.7
  ratio, gene ybjG: 5.8
  ratio, gene ybjN: −2.7
  ratio, gene ybjX: 5.3
  ratio, gene ycaC: 7.4
  ratio, gene ycbQ: −5.0
  ratio, gene yccD: 4.9
  ratio, gene yccM: 2.8
  ratio, gene ycdQ: −2.8
  ratio, gene ycfA: −3.4
  ratio, gene ycfH: 5.3
  ratio, gene ycfR: 2.8
  ratio, gene ycgB: 4.5
  ratio, gene ycgY: 3.0
  ratio, gene yciE: 5.4
  ratio, gene yciI: 5.1
  ratio, gene yciR: 6.5
  ratio, gene ycjF: −2.7
  ratio, gene yddM: 3.0
  ratio, gene ydhO: −2.8
  ratio, gene yeaG: 12.0
  ratio, gene yeaH: 2.8
  ratio, gene yeaP: −2.6
  ratio, gene yeaQ: 6.9
  ratio, gene yedU: 3.7
  ratio, gene yehT: −4.0
  ratio, gene yehX: 5.6
  ratio, gene yehY: 4.2
  ratio, gene yehZ: 7.1
  ratio, gene yeiQ: −2.7
  ratio, gene yfbM: 4.9
  ratio, gene yfcI: 3.1
  ratio, gene yfiA: −3.6
  ratio, gene yfiD: −2.6
  ratio, gene ygaG: 3.8
  ratio, gene ygaH: −3.3
  ratio, gene ygaM: 7.9
  ratio, gene ygaU: 5.1
  ratio, gene ygcO: −5.7
  ratio, gene ygeF: 5.2
  ratio, gene ygfQ: 3.7
  ratio, gene yggH: 5.7
  ratio, gene ygiA: 4.2
  ratio, gene ygiW: 5.2
  ratio, gene yhaF: −2.6
  ratio, gene yhcO: 4.4
  ratio, gene yhfG: 3.4
  ratio, gene yhgE: −2.9
  ratio, gene yhhZ: −2.6
  ratio, gene yhiE: 3.9
  ratio, gene yhiF: 2.9
  ratio, gene yhiW: 3.0
  ratio, gene yhjX: −9.6
  ratio, gene yi81_1: −3.2
  ratio, gene yiaG: 10.1
  ratio, gene yiaL: −2.9
  ratio, gene yibI: −3.1
  ratio, gene yidZ: −3.3
  ratio, gene yieJ: −2.9
  ratio, gene yieN: −3.8
  ratio, gene yigW_1: 3.8
  ratio, gene yihL: −8.0
  ratio, gene yihM: −3.3
  ratio, gene yihQ: 3.9
  ratio, gene yijC: 4.1
  ratio, gene yjbF: −3.5
  ratio, gene yjbO: 8.3
  ratio, gene yjcF: 3.1
  ratio, gene yjdB: 4.5
  ratio, gene yjiG: 3.1
  ratio, gene yjiZ: 3.8
  ratio, gene ykgE: −4.2
  ratio, gene ykgF: −3.1
  ratio, gene ylbB: −3.1
  ratio, gene ylcC: −3.6
  ratio, gene ylcD: 8.8
  ratio, gene ymdD: −4.3
  ratio, gene ymfJ: −3.4
  ratio, gene ymfM: 5.1
  ratio, gene ymgE: 3.9
  ratio, gene yncB: 3.4
  ratio, gene ynfL: 5.7
  ratio, gene yoaE: 2.8
  ratio, gene yodB: 6.2
  ratio, gene yohC: 12.0
  ratio, gene yohF: 2.8
  ratio, gene yohM: 7.7
  ratio, gene yqcD: −3.3
  ratio, gene yqgA: −2.9
  ratio, gene yqhD: −2.6
  ratio, gene yqhE: 4.0
  ratio, gene yqjC: 3.2
  ratio, gene yqjD: 5.8
  ratio, gene yqjE: 3.9
  ratio, gene yqjF: 3.6
  ratio, gene yqjG: 2.9
  ratio, gene yrbF: 3.1
  ratio, gene yrfG: −2.6
  ratio, gene ysgA: 2.8
AMP resistance
  Fold, gene ais: 14.1
  Fold, gene b2253: 8.4
  Fold, gene b2254: 5.5
  Fold, gene b2256: 4.0
  Fold, gene crcA: 11.7
Acid shock
  Fold, gene Asr: 19.2
  Fold, gene Slp: 3.6
  Fold, gene dksA: 4.1
  Fold, gene dps: 4.4
  Fold, gene gabP: 8.2
  Fold, gene gabT: 6.5
  Fold, gene gadC: 24.9
  Fold, gene gadE: 3.9
  Fold, gene gadW: 3.0
  Fold, gene hdeA: 7.7
  Fold, gene hdeB: 7.9
  Fold, gene hdeD: 4.3
  Fold, gene nmpC: −6.6
  Fold, gene ybaS: 8.8
  Fold, gene ycaC: 7.4
  Fold, gene ydiZ: 9.1
  Fold, gene yeaQ: 6.9
  Fold, gene yebV: 6.9
  Fold, gene yiaG: 10.1
Carbon metabolism
  Fold, gene amyA: 5.8
  Fold, gene b2097: 8.1
  Fold, gene glk: 3.4
  Fold, gene sfcA: 5.8
  Fold, gene sfsA: 6.4
  Fold, gene talA: 11.7
  Fold, gene tktB: 26.5
Heat shock
  Fold, gene clpB: −3.6
  Fold, gene dnaJ: −3.0
  Fold, gene dnaK: −2.8
  Fold, gene grpE: −3.0
  Fold, gene hslU: −3.2
  Fold, gene hslV: −3.0
  Fold, gene ibpB: −6.5
  Fold, gene lon: −2.9
  Fold, gene mopA: −3.6
  Fold, gene mopB: −9.1
Mg^2+-stimulon
  Fold, gene hemL: 8.3
  Fold, gene mgrB: 4.6
  Fold, gene mgtA: 7.5
  Fold, gene nagA: 3.7
  Fold, gene phoP: 2.8
  Fold, gene phoQ: 3.7
  Fold, gene rstB: 3.6
Mg^2+-stlmulon(?)
  Fold, gene nagB: 8.8
Nitrogen assimilation
  Fold, gene narU: 15.1
  Fold, gene narX: −4.0
  Fold, gene narY: 11.0
  Fold, gene narZ: 4.9
  Fold, gene nirB: −2.9
  Fold, gene nirC: −3.0
  Fold, gene nirD: −5.7
  Fold, gene nrfA: −12.7
Osmotic shock
  Fold, gene bolA: 13
  Fold, gene dacC: 3.6
  Fold, gene katE: 9.9
  Fold, gene osmC: 7.2
  Fold, gene osmE: 11.7
  Fold, gene osmY: 6.4
  Fold, gene otsA: 5.2
  Fold, gene otsB: 5.6
  Fold, gene proW: 7.9
  Fold, gene yehX: 5.6
  Fold, gene yehY: 4.2
  Fold, gene yehZ: 7.1
Phage shock
  Fold, gene pspA: 6.7
  Fold, gene pspB: 6.9
  Fold, gene pspC: 15.8
  Fold, gene pspD: 13.5
  Fold, gene pspE: 9.4
Protein folding
  Fold, gene sfmC: 11.4
Redox
  Fold, gene aer: 14.3
  Fold, gene appB: 47.2
  Fold, gene appC: 3.5
  Fold, gene ndh: 3.1
[1]
  number of genes down-regulated: 144 genes
  number of genes up-regulated: 200 genes
